Laboratory results reported in ChEMBL document CHEMBL1131431, “Enantiospecific semisynthesis of (+)-almuheptolide-A, a novel natural heptolide inhibitor of the mammalian mitochondrial respiratory chain” (J Med Chem, 1998).

Biological target: Mitochondrial complex I; NADH oxidoreductase (Bos taurus, UniProt P25708+P52505)
Experiment: Compound was tested for NADH oxidase activity in bovine heart submitochondrial particles
Type: protein-complex assay

Mitochondrial complex I; NADH oxidoreductase, sequence (P25708 21-464 limits assumed, other chains not shown): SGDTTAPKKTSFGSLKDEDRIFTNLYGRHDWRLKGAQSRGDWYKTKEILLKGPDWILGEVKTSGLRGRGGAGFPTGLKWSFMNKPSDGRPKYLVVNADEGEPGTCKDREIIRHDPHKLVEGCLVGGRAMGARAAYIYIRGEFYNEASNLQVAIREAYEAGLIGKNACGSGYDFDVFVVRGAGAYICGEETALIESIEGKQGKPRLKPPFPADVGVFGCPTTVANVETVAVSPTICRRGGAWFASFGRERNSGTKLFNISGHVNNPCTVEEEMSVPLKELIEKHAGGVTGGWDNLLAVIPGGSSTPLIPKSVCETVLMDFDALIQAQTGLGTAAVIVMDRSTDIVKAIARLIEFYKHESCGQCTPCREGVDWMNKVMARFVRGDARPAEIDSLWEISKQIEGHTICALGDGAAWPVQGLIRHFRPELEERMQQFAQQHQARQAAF

Row | Compound | IC50
1 | CCO[C@H]1[C@@H](O)[C@H](O)[C@@H](c2ccccc2)OC(=O)C[C@H]1OCC | 4.4 µM
2 | CCO[C@H]1[C@@H](OC(C)=O)[C@H](OC(C)=O)[C@@H](c2ccccc2)OC(=O)C[C@H]1OCC | 3.9 µM
